Where “and” joins values, the source holds several entries; their conditions need not be identical. Equal values may be shown once. Values belong to the compound of their own block, whether it stands above or below them.
Test system: 126254-015-R-J1-PDC complex spheroid growth, % test/control
Assay: Anticancer human tumor 126254-015-R-J1-PDC patient-derived soft tissue sarcoma cell line growth inhibition [Asc]
Conditions: for viability, T/C: stronger effect = lower value
In short: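 Complex solid-tumor spheroids incorporating human endothelial and mesenchymal stem cells received single agents or combinations over half-log dilution ranges anchored to clinical Cmax.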
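Note: spheroids exposed to compound for seven days.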
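Throughout, for viability, T/C: 100% = DMSO vehicle control wells.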

IC50 (curve of first compound, second compound 0.1 µM): > 0.1 µM
IC50 (curve of first compound, second compound 0.316 µM): > 0.1 µM
IC50 (curve of first compound, second compound 1 µM): > 0.1 µM
IC50 (curve of first compound, second compound 3.16 µM): > 0.1 µM
IC50 (curve of first compound, second compound 10 µM): > 0.1 µM
Structure (SMILES): NC1CCC(NC2CC2c2ccccc2)CC1 (stereo not drawn) + Cc1c(S(C)(=O)=O)c(-c2cc(F)cc(N3CCN(c4ccc(NS(=O)(=O)c5ccc(NC(CCN6CCC(C(=O)OCCCP(=O)(O)O)CC6)CSc6ccccc6)c(S(=O)(=O)C(F)(F)F)c5)cc4)CC3)c2)c(-c2ccc(Cl)cc2)n1C(C)C
viability, T/C (second compound 0.1 µM, first compound 0.000316 µM): 94.6%
viability, T/C (second compound 0.1 µM, first compound 0.001 µM): 88.8%
viability, T/C (second compound 0.1 µM, first compound 0.00316 µM): 76.7%
viability, T/C (second compound 0.1 µM, first compound 0.01 µM): 75.4%
viability, T/C (second compound 0.1 µM, first compound 0.0316 µM): 84%
viability, T/C (second compound 0.1 µM, first compound 0.1 µM): 77.6%
viability, T/C (second compound 0.316 µM, first compound 0.000316 µM): 74.4%
viability, T/C (second compound 0.316 µM, first compound 0.001 µM): 76.5%
viability, T/C (second compound 0.316 µM, first compound 0.00316 µM): 75.3%
viability, T/C (second compound 0.316 µM, first compound 0.01 µM): 70.1%
viability, T/C (second compound 0.316 µM, first compound 0.0316 µM): 66.5%
viability, T/C (second compound 0.316 µM, first compound 0.1 µM): 76.1%
viability, T/C (second compound 1 µM, first compound 0.000316 µM): 79%
viability, T/C (second compound 1 µM, first compound 0.001 µM): 81.2%
viability, T/C (second compound 1 µM, first compound 0.00316 µM): 73.1%
viability, T/C (second compound 1 µM, first compound 0.01 µM): 71.4%
viability, T/C (second compound 1 µM, first compound 0.0316 µM): 73.8%
viability, T/C (second compound 1 µM, first compound 0.1 µM): 60.3%
viability, T/C (second compound 3.16 µM, first compound 0.000316 µM): 81.5%
viability, T/C (second compound 3.16 µM, first compound 0.001 µM): 73.1%
viability, T/C (second compound 3.16 µM, first compound 0.00316 µM): 73.9%
viability, T/C (second compound 3.16 µM, first compound 0.01 µM): 71.2%
viability, T/C (second compound 3.16 µM, first compound 0.0316 µM): 62.3%
viability, T/C (second compound 3.16 µM, first compound 0.1 µM): 65%
viability, T/C (second compound 10 µM, first compound 0.000316 µM): 69.6%
viability, T/C (second compound 10 µM, first compound 0.001 µM): 69.1%
viability, T/C (second compound 10 µM, first compound 0.00316 µM): 70.4%
viability, T/C (second compound 10 µM, first compound 0.01 µM): 71.3%
viability, T/C (second compound 10 µM, first compound 0.0316 µM): 61.1%
viability, T/C (second compound 10 µM, first compound 0.1 µM): 58.2%

IC50 (compound alone, run of 10/03/2022): > 1 µM
IC50 (curve of compound): > 1 µM and 0.845 µM
Structure (SMILES): CNC(C)C(=O)NC1CN(S(=O)(=O)c2cccc(S(=O)(=O)N3CCC4CCC(C(=O)NC(c5ccccc5)c5ccccc5)N4C(=O)C(NC(=O)C(C)NC)C3)c2)CCC2CCC(C(=O)NC(c3ccccc3)c3ccccc3)N2C1=O (stereo not drawn)
viability, T/C (compound 0.00316 µM): 94.8% and 99.9%
viability, T/C (compound 0.01 µM): 86.8% [middle of 15 runs]
viability, T/C (compound 0.0316 µM): 76.6% [middle of 15 runs]
viability, T/C (compound 0.1 µM): 64.3% [middle of 15 runs]
viability, T/C (compound 0.316 µM): 59.9% [middle of 15 runs]
viability, T/C (compound 1 µM): 55.5% [middle of 15 runs]
